Ends that are not written are not given here.
Assays:
S. aureus 5156 = test: microbe, parasite or virus in culture; assay type: cell-based, Staphylococcus aureus; settings: pH 7.4 (II); 10 mM sodium phosphate buffer, 10% LB; 37° C, 24 h; mean of 3 experiments
Text: (§1) The method for peptide synthesis has been described in detail previously. E. coli ATCC 25922 (LB media), P. aeruginosa ATCC 15692 (NB+0.5% NaCl media), Listeria monocytogenes ATCC 3710 (LB media), Staphylococcus epidermidis ATCC 12228 (LB media), and S. aureus ATCC 29213 (TSB media) were obtained from the American Type Culture Collection (Manassas, VA, USA). Bacillus subtilis KCTC 1998 (LB media), Salmonella typhimurium KCTC 1926 (NB media), and Proteus vulgaris KCTC 2433 (NB media) were obtained from the Korean Collection for Type Cultures (Jeollabuk-do, Korea). E. coli CCARM 1238 was received from the Culture Collection of Antibiotic Resistant Microbes at Seoul Women’s University, Korea. Drug-resistant P. aeruginosa 3543, 3904, 3547, and 4007 and S. aureus 3126, 0027, 5157, 1635, 4761, 5159, 3359, 2122, 1630, 1870, 3511, 5156, and 3518 were resistant strains isolated from patients with otitis media in a Chonnam National University’s hospital.
(§2) The antibacterial activities of AMPs (melittin, clavaspirin, and its analogs) and conventional antibiotic drugs (erythromycin, gentamicin, ampicillin, and piperacidin) were determined using microdilution assays. Bacterial cells were cultured at 37° C in appropriate culture media at pH 5.5 or pH 7.4 until collection during the mid-log phase and suspended in 10 mM sodium phosphate buffer (pH 5.5 or pH 7.4) supplemented with 10% culture medium. Thereafter, 2× serial dilutions of each peptide (0.25–128 μM) or antibiotic (0.25–256 μM) were added to sterile 96-well plates, and aliquots of cell suspension (5 × 10^5 colony forming units (cfu)/mL) were seeded into each well. The samples were then incubated at 37° C for 24 h. At the end of the incubation, the minimum inhibitory concentrations (MICs) of the peptides were determined using a VERSA Max microplate reader (Molecular Devices Co., Sunnyvale, CA, USA) at a wavelength of 600 nm. […] MIC values were calculated as the mean of 3 independent experiments conducted in triplicate.

S. aureus 3511 = test: microbe, parasite or virus in culture; assay type: cell-based, Staphylococcus aureus; settings: pH 7.4 (II); 10 mM sodium phosphate buffer, 10% LB; 37° C, 24 h; mean of 3 experiments
Text: as §1, §2

S. aureus 1870 = test: microbe, parasite or virus in culture; assay type: cell-based, Staphylococcus aureus; settings: pH 7.4 (II); 10 mM sodium phosphate buffer, 10% LB; 37° C, 24 h; mean of 3 experiments
Text: as §1, §2

S. aureus 3359 = test: microbe, parasite or virus in culture; assay type: cell-based, Staphylococcus aureus; settings: pH 7.4 (II); 10 mM sodium phosphate buffer, 10% LB; 37° C, 24 h; mean of 3 experiments
Text: as §1, §2

S. aureus 2122 = test: microbe, parasite or virus in culture; assay type: cell-based, Staphylococcus aureus; settings: pH 7.4 (II); 10 mM sodium phosphate buffer, 10% LB; 37° C, 24 h; mean of 3 experiments
Text: as §1, §2

S. aureus 3126 = test: microbe, parasite or virus in culture; assay type: cell-based, Staphylococcus aureus; settings: pH 7.4 (II); 10 mM sodium phosphate buffer, 10% LB; 37° C, 24 h; mean of 3 experiments
Text: as §1, §2

S. aureus 1630 = test: microbe, parasite or virus in culture; assay type: cell-based, Staphylococcus aureus; settings: pH 7.4 (II); 10 mM sodium phosphate buffer, 10% LB; 37° C, 24 h; mean of 3 experiments
Text: as §1, §2

S. aureus 5159 = test: microbe, parasite or virus in culture; assay type: cell-based, Staphylococcus aureus; settings: pH 7.4 (II); 10 mM sodium phosphate buffer, 10% LB; 37° C, 24 h; mean of 3 experiments
Text: as §1, §2

S. aureus 5157 = test: microbe, parasite or virus in culture; assay type: cell-based, Staphylococcus aureus; settings: pH 7.4 (II); 10 mM sodium phosphate buffer, 10% LB; 37° C, 24 h; mean of 3 experiments
Text: as §1, §2

S. aureus 1635 = test: microbe, parasite or virus in culture; assay type: cell-based, Staphylococcus aureus; settings: pH 7.4 (II); 10 mM sodium phosphate buffer, 10% LB; 37° C, 24 h; mean of 3 experiments
Text: as §1, §2

S. aureus 0027 = test: microbe, parasite or virus in culture; assay type: cell-based, Staphylococcus aureus; settings: pH 7.4 (II); 10 mM sodium phosphate buffer, 10% LB; 37° C, 24 h; mean of 3 experiments
Text: as §1, §2

S. aureus 3518 = test: microbe, parasite or virus in culture; assay type: cell-based, Staphylococcus aureus; settings: pH 7.4 (II); 10 mM sodium phosphate buffer, 10% LB; 37° C, 24 h; mean of 3 experiments
Text: as §1, §2

S. aureus 4761 = test: microbe, parasite or virus in culture; assay type: cell-based, Staphylococcus aureus; settings: pH 7.4 (II); 10 mM sodium phosphate buffer, 10% LB; 37° C, 24 h; mean of 3 experiments
Text: as §1, §2

P. aeruginosa 3547 = test: microbe, parasite or virus in culture; assay type: cell-based, Pseudomonas aeruginosa; settings: pH 7.4 (II); 10 mM sodium phosphate buffer, 10% LB; 37° C, 24 h; mean of 3 experiments
Text: as §1, §2

P. aeruginosa 3904 = test: microbe, parasite or virus in culture; assay type: cell-based, Pseudomonas aeruginosa; settings: pH 7.4 (II); 10 mM sodium phosphate buffer, 10% LB; 37° C, 24 h; mean of 3 experiments
Text: as §1, §2

P. aeruginosa 3543 = test: microbe, parasite or virus in culture; assay type: cell-based, Pseudomonas aeruginosa; settings: pH 7.4 (II); 10 mM sodium phosphate buffer, 10% LB; 37° C, 24 h; mean of 3 experiments
Text: as §1, §2

P. aeruginosa 4007 = test: microbe, parasite or virus in culture; assay type: cell-based, Pseudomonas aeruginosa; settings: pH 7.4 (II); 10 mM sodium phosphate buffer, 10% LB; 37° C, 24 h; mean of 3 experiments
Text: as §1, §2

E. coli CCARM1238 = test: microbe, parasite or virus in culture; assay type: cell-based, Escherichia coli; settings: pH 7.4 (II); 10 mM sodium phosphate buffer, 10% LB; 37° C, 24 h; mean of 3 experiments
Text: as §1, §2

S. aureus LTA = test: Peptide-LTA binding affinity assay (dansyl polymyxin B); settings: LTA 9 µg, 2.5 μM dansyl polymyxin B, 5 mM HEPES buffer pH 7.4, peptide 0.4 to 4 μM
Protocol: Lipoteichoic acid (LTA) and lipopolysaccharide (LPS) binding affinity assays were performed using a Perkin-Elmer LS55 fluorometer (Waltham, MA, USA). S. aureus LTA and E. coli LPS (9 µg) were incubated with 2.5 μM dansyl-polymyxin B in 5 mM HEPES buffer for 5–10 min at pH 7.4. The CSP-4 peptide was added in 0.4 μM increments from 0.4 to 4 μM. The increase in fluorescence intensity was assessed using a spectrofluorometer at an excitation wavelength of 340 nm and an emission wavelength of 482 nm (Perkin-Elmer LS55).

FLRFIGSVKHGKGHLVHHIGVAL-NH2 [CSP-4]
MIC (S. aureus 5156): 8 µM | MIC (S. aureus 3511): 8 µM | MIC (S. aureus 1870): 8 µM | MIC (S. aureus 3359): 8 µM | MIC (S. aureus 2122): 8 µM | MIC (S. aureus 3126): 8 µM | MIC (S. aureus 1630): 8 µM | MIC (S. aureus 5159): 8 µM | MIC (S. aureus 5157): 8 µM | MIC (S. aureus 1635): 8 µM | MIC (S. aureus 0027): 8 µM | MIC (S. aureus 3518): 8 µM | MIC (S. aureus 4761): 8 µM | MIC (P. aeruginosa 3547): 4 µM | MIC (P. aeruginosa 3904): 2 µM | MIC (P. aeruginosa 3543): 4 µM | MIC (P. aeruginosa 4007): 2 µM | MIC (E. coli CCARM1238): 2 µM | Binding to LTA (fluorescence of dansyl polymyxin B) (S. aureus LTA): dose-dependent increase in fluorescence intensity

Reference: PMC5884652, “New antimicrobial peptide kills drug-resistant pathogens without detectable resistance” (Oncotarget, 2018)
